{
  "source": "PubChem BioAssay AID270",
  "about": "(DTP/NCI, 2004)",
  "tested_on": "BDF1 mice, s.c. Lewis lung carcinoma, T/C %",
  "test": "NCI In Vivo Anticancer Drug Screen. Data for tumor model Lewis Lung Carcinoma (subcutaneous) in B6D2F1 (BDF1) mice",
  "procedure,_shortened": "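Readout: survival or tumor size, expressed as treated (T) over vehicle control (C). Transplantable tumor implanted in mice; compound given to the treated group.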",
  "note": "Records with an inconclusive call do not appear.",
  "data": [
    {"smiles": "Oc1cc2c3c(c1)c1cc4c(cc1c[n+]3CC2)OCO4", "values": [
      {"measurement": "T/C", "setting": "endpoint: median survival time, dose: 3.13 mg/kg/injection, schedule: Q01DX009 (ip), vehicle: water, higher = longer survival", "result": "109 % of control"},
      {"measurement": "T/C", "setting": "endpoint: median survival time, dose: 6.25 mg/kg/injection, schedule: Q01DX009 (ip), vehicle: water, higher = longer survival", "result": "96 % of control"},
      {"measurement": "T/C", "setting": "endpoint: median survival time, dose: 12.5 mg/kg/injection, schedule: Q01DX009 (ip), vehicle: water, higher = longer survival", "result": "122 % of control"},
      {"measurement": "T/C", "setting": "endpoint: median survival time, dose: 25.0 mg/kg/injection, schedule: Q01DX009 (ip), vehicle: water, higher = longer survival", "result": "96 % of control"}
    ]},
    {"smiles": "O=CNCCNC=O", "values": [
      {"measurement": "T/C", "setting": "endpoint: mean tumor weight, dose: 148.0 mg/kg/injection, schedule: Q01DX011 (ip), vehicle: saline, higher = larger tumour", "result": "96 % of control"},
      {"measurement": "T/C", "setting": "endpoint: mean tumor weight, dose: 333.0 mg/kg/injection, schedule: Q01DX011 (ip), vehicle: saline, higher = larger tumour", "result": "98 % of control"},
      {"measurement": "T/C", "setting": "endpoint: mean tumor weight, dose: 500.0 mg/kg/injection, schedule: Q01DX011 (ip), vehicle: saline, higher = larger tumour", "result": "115 % of control"}
    ]},
    {"smiles": "C[C@]12CCC(=O)C=C1CC[C@@H]1[C@@H]2[C@@H](O)C[C@@]2(C)[C@H]1CC[C@]2(O)C(=O)CF", "values": [
      {"measurement": "T/C", "setting": "endpoint: mean tumor weight, dose: 3.13 mg/kg/injection, schedule: Q01DX011 (sc), vehicle: steriod suspending solution, higher = larger tumour", "result": "70 % of control"},
      {"measurement": "T/C", "setting": "endpoint: mean tumor weight, dose: 6.25 mg/kg/injection, schedule: Q01DX011 (sc), vehicle: steriod suspending solution, higher = larger tumour", "result": "68 % of control"},
      {"measurement": "T/C", "setting": "endpoint: mean tumor weight, dose: 12.5 mg/kg/injection, schedule: Q01DX011 (sc), vehicle: steriod suspending solution, higher = larger tumour", "result": "65 % of control"},
      {"measurement": "T/C", "setting": "endpoint: mean tumor weight, dose: 25.0 mg/kg/injection, schedule: Q01DX011 (sc), vehicle: steriod suspending solution, higher = larger tumour", "result": "33 % of control"}
    ]},
    {"smiles": "COC(=O)[C@@H]1[C@@H](O)[C@H](OC(=O)c2cc(OC)c(OC)c(OC)c2)C[C@@H]2CN3CCc4c([nH]c5ccccc45)[C@H]3C[C@@H]21", "values": [
      {"measurement": "T/C", "setting": "endpoint: median survival time, dose: 1.25 mg/kg/injection, schedule: Q01DX009 (ip), vehicle: Klucel (hydroxypropylcellulose) (HPC), higher = longer survival", "result": "108 % of control"},
      {"measurement": "T/C", "setting": "endpoint: median survival time, dose: 2.5 mg/kg/injection, schedule: Q01DX009 (ip), vehicle: Klucel (hydroxypropylcellulose) (HPC), higher = longer survival", "result": "122 % of control"},
      {"measurement": "T/C", "setting": "endpoint: median survival time, dose: 5.0 mg/kg/injection, schedule: Q01DX009 (ip), vehicle: Klucel (hydroxypropylcellulose) (HPC), higher = longer survival", "result": "88 % of control"}
    ]},
    {"smiles": "CCS(=O)(=O)Nc1cccc(Nc2c3cccc(C)c3nc3c(C)cccc23)c1OC", "values": [
      {"measurement": "T/C", "setting": "endpoint: median survival time, dose: 12.5 mg/kg/injection, schedule: Q01DX011 (ip), vehicle: saline with Tween-80, higher = longer survival", "result": "111 % of control"},
      {"measurement": "T/C", "setting": "endpoint: median survival time, dose: 25.0 mg/kg/injection, schedule: Q01DX011 (ip), vehicle: saline with Tween-80, higher = longer survival", "result": "101 % of control"},
      {"measurement": "T/C", "setting": "endpoint: median tumor weight (est.), dose: 12.5 mg/kg/injection, schedule: Q01DX011 (ip), vehicle: saline with Tween-80, higher = larger tumour", "result": "82 % of control"},
      {"measurement": "T/C", "setting": "endpoint: median tumor weight (est.), dose: 25.0 mg/kg/injection, schedule: Q01DX011 (ip), vehicle: saline with Tween-80, higher = larger tumour", "result": "44 % of control"}
    ]},
    {"smiles": "CC[C@@]1(O)C[C@H](OC2CC(N(C)C)C(OC3CC(O)C(OC4CCC(=O)C(C)O4)C(C)O3)C(C)O2)c2c(cc3c(c2O)C(=O)c2c(O)cccc2C3=O)[C@H]1C(=O)OC", "note": "(stereo not given in full)", "values": [
      {"measurement": "T/C", "setting": "endpoint: median survival time, dose: 1.5 mg/kg/injection, schedule: Q01DX009 (ip), vehicle: Klucel (hydroxypropylcellulose) (HPC), higher = longer survival", "result": "104 % of control"}
    ]},
    {"smiles": "S=P(NCCNP(=S)(N1CC1)N1CC1)(N1CC1)N1CC1", "values": [
      {"measurement": "T/C", "setting": "endpoint: median survival time, dose: 6.25 mg/kg/injection, schedule: Q01DX009 (ip), vehicle: Klucel (hydroxypropylcellulose) (HPC), higher = longer survival", "result": "100 % of control"},
      {"measurement": "T/C", "setting": "endpoint: median survival time, dose: 12.5 mg/kg/injection, schedule: Q01DX009 (ip), vehicle: Klucel (hydroxypropylcellulose) (HPC), higher = longer survival", "result": "102 % of control"},
      {"measurement": "T/C", "setting": "endpoint: median survival time, dose: 25.0 mg/kg/injection, schedule: Q01DX009 (ip), vehicle: Klucel (hydroxypropylcellulose) (HPC), higher = longer survival", "result": "104 % of control"}
    ]},
    {"smiles": "C[C@]1(O)CC[C@H]2[C@@H]3CCC4=CC(=O)CC[C@]4(C)[C@@]3(F)[C@@H](O)C[C@@]21C", "values": [
      {"measurement": "T/C", "setting": "endpoint: median survival time, dose: 12.5 mg/kg/injection, schedule: Q02DX009 (ip), vehicle: Klucel (hydroxypropylcellulose) (HPC), higher = longer survival", "result": "103 % of control"},
      {"measurement": "T/C", "setting": "endpoint: median survival time, dose: 25.0 mg/kg/injection, schedule: Q02DX009 (ip), vehicle: Klucel (hydroxypropylcellulose) (HPC), higher = longer survival", "result": "93 % of control"},
      {"measurement": "T/C", "setting": "endpoint: median survival time, dose: 50.0 mg/kg/injection, schedule: Q02DX009 (ip), vehicle: Klucel (hydroxypropylcellulose) (HPC), higher = longer survival", "result": "87 % of control"},
      {"measurement": "T/C", "setting": "endpoint: median survival time, dose: 100.0 mg/kg/injection, schedule: Q02DX009 (ip), vehicle: Klucel (hydroxypropylcellulose) (HPC), higher = longer survival", "result": "109 % of control"},
      {"measurement": "T/C", "setting": "endpoint: median survival time, dose: 200.0 mg/kg/injection, schedule: Q02DX009 (ip), vehicle: Klucel (hydroxypropylcellulose) (HPC), higher = longer survival", "result": "103 % of control"},
      {"measurement": "T/C", "setting": "endpoint: median survival time, dose: 400.0 mg/kg/injection, schedule: Q02DX009 (ip), vehicle: Klucel (hydroxypropylcellulose) (HPC), higher = longer survival", "result": "96 % of control"}
    ]},
    {"smiles": "Nc1ccccc1N", "values": [
      {"measurement": "T/C", "setting": "endpoint: median survival time, dose: 25.0 mg/kg/injection, schedule: Q02DX009 (ip), vehicle: saline with Tween-80, higher = longer survival", "result": "112 % of control"},
      {"measurement": "T/C", "setting": "endpoint: median survival time, dose: 50.0 mg/kg/injection, schedule: Q02DX009 (ip), vehicle: saline with Tween-80, higher = longer survival", "result": "118 % of control"},
      {"measurement": "T/C", "setting": "endpoint: median survival time, dose: 100.0 mg/kg/injection, schedule: Q02DX009 (ip), vehicle: saline with Tween-80, higher = longer survival", "result": "97 % of control"},
      {"measurement": "T/C", "setting": "endpoint: median survival time, dose: 200.0 mg/kg/injection, schedule: Q02DX009 (ip), vehicle: saline with Tween-80, higher = longer survival", "result": "111 % of control"}
    ]},
    {"smiles": "CC1CCCCN1CCNc1ccc(CO)c2sc3ccccc3c(=O)c12", "note": "(stereo not given)", "values": [
      {"measurement": "T/C", "setting": "endpoint: median survival time, dose: 25.0 mg/kg/injection, schedule: Q01DX009 (ip), vehicle: saline with Tween-80, higher = longer survival", "result": "108 % of control"},
      {"measurement": "T/C", "setting": "endpoint: median survival time, dose: 50.0 mg/kg/injection, schedule: Q01DX009 (ip), vehicle: saline with Tween-80, higher = longer survival", "result": "100 % of control"},
      {"measurement": "T/C", "setting": "endpoint: median survival time, dose: 100.0 mg/kg/injection, schedule: Q01DX009 (ip), vehicle: saline with Tween-80, higher = longer survival", "result": "122 % of control"}
    ]}
  ]
}
